The values below are quoted from earlier work in patent publication US8242056B2, “Agriculture actives delivery composition comprising boron and persulfate ion-crosslinked polyvinyl alcohol microcapsules and method of use thereof” (Appleton Papers Inc., priority 2008, dated 2012).

Read-outs that look alike come from different tables or passages of the source.

The conditions of data set [1]: half ionized and half un-ionized at its pKa.

Consider `COc1cc(OC)nc(NC(=O)NS(=O)(=O)c2ncccc2C(=O)N(C)C)n1` [nicosulfuron], for which the Water solubility is, setting by setting: (pH5) 360 ppm; (pH 6.9) 12,200 ppm; (pH 8.8) 29,200 ppm. Further, the pKa in data set [1] is 4.3.
